row,SMILES,melting point
1,CC(C)c1ccc(O)c(O)c1,78 °C
2,NNC(=O)CCCO,93 °C
3,CN1CCCN(C)CCN(C)CCCN(C)CC1,41 to 43 °C
4,O=Cc1csc(-c2ccc(C(F)(F)F)cc2)n1,103 to 105 °C
5,O=C(Oc1c(F)c(F)c(F)c(F)c1F)c1ccc(OC2CCOCC2)nc1,114 to 118 °C
6,O=C(O)Cc1ccc(Cl)cc1Cl,129 °C
7,OCN(CO)c1nc(N(CO)CO)nc(N(CO)CO)n1,137 °C
8,CCCCC1=NC2(CCCC2)C(=O)N1Cc1ccc(-c2ccccc2-c2nnn[nH]2)cc1,180 °C
9,CC1=CCCC1C (stereo not drawn),-118 °C
10,OC(CCCN1CCCCC1)(c1ccccc1)c1ccccc1,104 °C
11,CNc1cc(Cl)ccc1[N+](=O)[O-],104 to 107 °C
12,COc1cc(C(=O)c2cccc(Br)c2)c([N+](=O)[O-])cc1OC,119 °C
13,CC1OC(O)C(O)C(O)C1O (stereo not drawn),144 to 145 °C
14,Cc1cc(NN)nc2c1c(C)nn2C,199 to 205 °C
15,O=C(Cl)c1cnn(-c2ccccc2)c1C(F)(F)F,40 to 41 °C
16,NC(=O)C=CC(=O)O,172 °C
17,CC(=O)c1ccc(Cl)s1,49 °C
18,NC12c3ccccc3C(c3ccccc31)c1ccccc12,220 °C
19,O=C(O)C=CC(=O)Nc1cccc(Cl)c1,198 °C
20,O=C1CCC2(O)C3Cc4ccc(O)c5c4C2(CCN3CC2CC2)C1O5 (stereo not drawn),169 °C
21,CC(C)[C@@H](NC(=O)OC(C)(C)C)C(=O)O,164 to 165 °C

row,SMILES,melting point
1,CCCC(=O)c1ccc(F)cc1,37 °C
2,CCCCCCCCCCCS,-3 °C
3,CC(=O)c1ccc(C(C)=O)cc1,112 °C
4,CCCCCCC(N)C(=O)O (stereo not drawn),270 °C
5,N#CC1=C(N)N2C(=C(C#N)C1c1ccccc1)Sc1ccccc12 (stereo not drawn),205 °C
6,COc1ccc2c(c1)c(CC(=O)O)c(C)n2C(=O)C=Cc1ccccc1,170 °C
7,CC(=O)c1ccc2c(c1)CCO2,62 to 64 °C
8,N#Cc1c(F)cccc1I,50 °C
9,O=C(Nc1ccc(Br)cc1)c1cc(Br)cc(Br)c1O,227 °C
10,Cc1ccc(Cl)c(CO)c1F,57 °C
11,Cc1ccccc1NC(=S)C(=O)c1ccccc1,124 °C
12,CC(C)(C)OC(=O)N1CCC(c2nc(CO)cs2)CC1,97 to 101 °C
13,CCOC(=O)C(C)(C)C1(c2ccc(OC)cc2)CCC(=O)O1 (stereo not drawn),59 °C
14,O=C(NC1CCCCC1)C(C(F)(F)F)C(F)(F)F,190 to 192 °C
15,COc1ccc([N+](=O)[O-])cc1N=C=S,105 to 107 °C
16,S=C=Nc1cc(Cl)cc(Cl)c1,46 °C
17,CN1C(=O)Cc2cc(N)ccc21,109 to 112 °C
18,Nc1cc(F)c(Br)cc1F,75 °C
19,Cc1oc(S(=O)(=O)N2CCCC2)cc1C(=O)O,185 °C
20,C=CC1=C(C=NNc2ccc([N+](=O)[O-])cc2[N+](=O)[O-])CCCC1,152 to 153 °C
21,Cc1cccnc1C(N)=NO,94 to 95 °C

row,SMILES,melting point
1,COc1ccc(CC2c3cc(OC)c(OC)cc3CCN2C)cc1OC (stereo not drawn),89 °C
2,Clc1ccc(COC(Cn2ccnc2)c2ccc(Cl)cc2Cl)cc1 (stereo not drawn),86.8 °C
3,CCOP(=O)(OCC)Oc1c2cc(C(C)(C)C)cc1Cc1cc(C(C)(C)C)cc(c1O)Cc1cc(C(C)(C)C)cc(c1OP(=O)(OCC)OCC)Cc1cc(C(C)(C)C)cc(c1O)C2,203 to 205 °C
4,Nc1cc(F)c(F)cc1C(=O)O,182 °C
5,Oc1ccc(O)c(Br)c1,112 °C
6,O=S1CCC1,31.5 °C
7,NNC(=S)NC1CCCCC1,142 to 145 °C
8,CC12CCC(C(=O)Cl)(OC1=O)C2(C)C (stereo not drawn),66 °C
9,Cc1ccc2sc(C(=O)Cl)cc2c1,58 to 60 °C
10,NC(=S)C1=Cc2ccccc2OC1,172 to 174 °C
11,CSc1nnc(C(C)(C)C)c(=O)n1N,126 °C
12,Cc1cc(C#N)ccc1N,94 °C
13,CCCCCCCCCCCCCCCC=O,35 °C
14,OCC(F)(F)C(F)(F)C(F)(F)C(F)(F)C(F)(F)C(F)(F)CO,80 to 83 °C
15,O=C(NC(Cc1c[nH]c2ccccc12)C(=O)O)OCc1ccccc1 (stereo not drawn),124 °C
16,CCn1c(C)nc2ccccc21,51 °C
17,O=C(O)C(Cl)(Cl)CCl,65.5 °C
18,CSc1nc2[nH]c(=S)[nH]c(=O)c2n1C,289 to 290 °C
19,COc1ccc(SCC(=O)O)cc1OC,102 °C
20,CNc1ccncc1,126 °C
21,Cc1nc2ccc(I)cc2s1,134 to 137 °C

row,SMILES,melting point
1,CCCCCCCCCCCCCCCCCCCCCCCCCCO,80 °C
2,CC1(C)C(C=CC(=O)OC(C(F)(F)F)C(F)(F)F)C1C(=O)OC(C#N)c1cccc(Oc2ccccc2)c1 (stereo not drawn),81.5 °C
3,O=C(C(=O)c1ccc2c3c(cccc13)CC2)c1ccccc1,148 °C
4,CSc1sc(C(=O)O)c(-c2cccc(C(F)(F)F)c2)c1C#N,232 to 234 °C
5,O=C1NC(=O)C2(c3ccc(Cl)cc3)c3ccccc3CCN12 (stereo not drawn),215 to 216 °C
6,COc1ccc(C(=O)OC2Cc3ccccc32)cc1 (stereo not drawn),124 °C
7,O=[N+]([O-])c1sc2ccccc2c1Br,165 to 167 °C
8,COc1cc(/C=C/C(=O)CC(=O)/C=C/c2ccc(O)c(OC)c2)ccc1O,183 °C
9,C(C#CCOc1ccccc1)#CCOc1ccccc1,82 °C
10,COc1cc(-c2n[nH]c(=S)n2/N=C/c2cc(Br)ccc2O)cc(OC)c1OC,230 to 231 °C
11,NC(C(=O)O)(c1ccccc1)c1ccccc1,244 to 247 °C
12,CC(C)NC(=S)NN,96 to 97 °C
13,O=[N+]([O-])c1ccc2c(O)c(-c3ccc(-c4[nH]c5cc([N+](=O)[O-])ccc5c4O)cc3)[nH]c2c1,360 °C
14,Cc1ccc(Br)c(C)c1[N+](=O)[O-],70 °C
15,CC(C)C[C@@H](CC#N)NC(=O)OC(C)(C)C,75 to 77 °C
16,N#Cc1ccccc1N=C=O,61 to 62 °C
17,CC1(C)OC2(C)CCC1C(=O)OC2(c1ccccc1)c1ccccc1 (stereo not drawn),134 °C
18,CCNC(=O)C1CC(C)CCC1C(C)C (stereo not drawn),88 °C
19,O=C(O)c1ccc(Cl)nc1Cl,148 °C

# Results, then the molecule that gave them:
row,melting point,SMILES
1,78.6 to 80.4 °C,CC1(C)N=C(c2ccccc2)C(C)(C)N1O
2,318 °C,Cc1cc(=O)[nH]c2c(/N=N/c3cccc([N+](=O)[O-])c3)c(N)nn12
3,158 to 160 °C,CC1(C)c2ccccc2N(Cc2ccccc2)C12C=Cc1cc([N+](=O)[O-])ccc1O2 (stereo not drawn)
4,207 °C,O=C1Cc2cc3c(cc21)C(=O)C3
5,225 °C,ICC(CI)(CI)CI
6,102 °C,CCN(Cc1c(F)cccc1Cl)c1c([N+](=O)[O-])cc(C(F)(F)F)cc1[N+](=O)[O-]
7,207 °C,CC(C)NCC(O)c1ccc(NS(C)(=O)=O)cc1 (stereo not drawn)
8,-99 °C,C/C=C/Cl
9,47.5 °C,Cc1cc(Cl)nn1C
10,93 °C,CCOC(=O)C1C(c2ccc(C)cc2)C(C(=O)OCC)C(O)(C(F)(F)F)NC1(O)C(F)(F)F (stereo not drawn)
11,203 to 205 °C,O=C(O)c1scc2c1CCCC2
12,273 °C,O=C(O)c1ccccc1C(=O)Nc1ccc(S(=O)(=O)N=c2[nH]ccs2)cc1
13,135 to 139 °C,COc1cc2c(cc1OC)C(CO)NCC2 (stereo not drawn)
14,132 to 134 °C,CCOC(=O)CCC(C)C1CCC2C3C(=O)C(Br)C4CC(OC(C)=O)CCC4(C)C3CC(OC(C)=O)C12C (stereo not drawn)
15,221 °C,CC(=CC=C(C)C(=O)O)C(=O)O
16,60 °C,O=[N+]([O-])c1cc(S(=O)(=O)Cl)ccc1Cl
17,171 to 172 °C,NNC(=S)Nc1ccc(F)cc1
18,160 to 165 °C,Cc1[nH]c2c([N+](=O)[O-])cccc2c1C
19,83 °C,CC(C)(O)C#Cc1ccccn1
20,130 to 132 °C,COC(=O)c1cc([N+](=O)[O-])ccc1SC
21,182 °C,N#Cc1ccc(C=Cc2ccccc2C=NNc2ccccc2)c([N+](=O)[O-])c1
22,154 °C,O=C(O)Cc1csc2ccc(Cl)cc12
23,39 °C,Cc1cc([N+](=O)[O-])ccc1F

row,melting point,SMILES
1,82 °C,O=[N+]([O-])c1ccccc1Sc1ccccc1
2,163 °C,O=Cc1ccc(O)c(O)c1O
3,187 °C,CCc1nc(CC)nc(NS(=O)(=O)c2ccc(N)cc2)n1
4,-37 °C,C=Cc1c(C)cc(C)cc1C
5,205 °C,Cc1c(C)c(CBr)c(CBr)c(CBr)c1CBr
6,150 to 152 °C,NNc1ncnc2scc(-c3ccccc3)c12
7,268 °C,CC(=O)Nc1cc(CCNC(=O)c2ccccc2)cc(NC(C)=O)c1CCNC(=O)c1ccccc1
8,319 °C,Nc1cccc2c1C(=O)c1cccc(N)c1C2=O
9,70 °C,CC(C)(C(=O)O)C(F)(F)F
10,98 to 101 °C,Cc1nc2ccc(S(=O)(=O)Cl)cc2s1
11,226 to 228 °C,COc1ccc(NC(=O)/C(C)=N\NC(N)=O)cc1
12,64.2 °C,C1CCN(SSN2CCCCC2)CC1
13,49 °C,COC(=O)c1ccno1
14,34 to 38 °C,Fc1ccc(S)cc1F
15,104 °C,COC(=O)C1(S(=O)(=O)c2ccc(Br)cc2)CCCC1
16,146 °C,Cc1ccc(C(=O)c2ccccc2C(=O)O)cc1
17,88 to 90 °C,COC1=C(OC)C(C(O)COS(=O)(=O)c2ccc(C)cc2)OC1=O (stereo not drawn)
18,133 °C,ON=Cc1c(F)cccc1Cl
19,47.5 °C,CC(C=Cc1ccccc1)c1ccccc1 (stereo not drawn)
20,104 to 105 °C,CCc1nc(C)c(C=O)[nH]1
21,103 to 105 °C,O=C(O)C1Cc2ccccc2N1C(=O)OCc1ccccc1 (stereo not drawn)
22,121 to 122 °C,c1ccc(-c2nc3ccccc3nc2-c2ccc3ccccc3c2)cc1
23,72 to 77 °C,Nc1ccccc1CCc1ccccc1N
